Tests used:
human erythrocytes = assay: protection of human erythrocytes from AAPH-induced lysis; type: cell-based; conditions: for IC50: Homo sapiens, Erythrocyte, 3 h, 100 mM AAPH, 10% RBC suspension, 37° C., 180 min, read-out: concentration of the agent that elicits 50% inhibition of cells lysis (IC50)
Procedure: In this example, experiments were conducted with human erythrocytes, subjecting them to free radicals generated by thermal activation of AAPH in a reaction mixture in the absence and in the presence of various amounts of purpurogallin or Trolox, to determine the cytoprotective capability of purpurogallin under these conditions.
Freshly obtained human erythrocytes were washed at least three times in saline with centrifugation at 1500 g×10 min. Then, a 20% suspension of RBC was prepared in the phosphate buffered saline (pH 7.4). (Miki et al., Arch. Biochem. Biophys. 258: 373-380, 1987).
The free radicals were generated by thermal activation of the azo-initiator2,2'-azo-bis(2-amidinopropane)HCl(AAPH). The reaction mixture (0.5 mL volumes) contained 10% red blood cell (RBC) suspension, AAPH (100 mM final level) and various levels of purpurogallin in 10 mM phosphate buffered saline. The above mixture was incubated at 37° C. for 180 min, while shaking gently. The, 35 μl aliquot of reaction mixture was taken out, diluted in 1.5 mL of saline, and centrifuged (1500 g for 10 min). The absorption of the supernatant at […] was read against a PBA blank. Similarly, the reaction mixture was treated with 1.5 mL of distilled water with sonication for 2 min to obtain complete hemolysis. Percent hemolysis was calculated according to Miki et al. (op. cit.).

rat hepatocytes [1] = assay: time to necrose rat hepatocytes exposed to xanthine oxidase/hypoxanthine oxyradicals (FIG. 2); type: cell-based, rat (male Sprague-Dawley); conditions: 3 mM; XOD 66.7 IU/L, 2 mM hypoxanthine; control approximately 6 min
Procedure: In this example, experiments were conducted with rat hepatocytes, subjecting them to the action of free radicals in the presence and absence of purpurogallin, at various levels.
Hepatocytes were prepared from male Sprague-Dawley rats (400 g-450 g) according the method of Princen et al. J. Clin. Invest. 78: 1064-1071 (1986), except that the perfusion of the liver was done first with 250 mL of 0.5 mM EGTA and 10 MM HEPES buffer solution (pH 7.4) containing 142 mM NaCl and 6.7 mM KCL via gravity drip at 20 mL/min., then with 100 mL of magnesium-free Hank's Balanced Salt Solution containing 5 mM CaCl2 and 0.05% collagenase according to Seglen, Exp. Cell. Res. 82: 391-398 (1973). All other details were as described previously (Wu et al., Biochem. Cell Biol. 68, 1189-1194, 1990).
Free radical studies were done by removing the cell medium and adding to the cells 3 mL of 0.05M sodium phosphate-buffered saline (PBS) (pH 7.4) containing 66.7 IU/L of xanthine oxidase (XOD) and 2 mM hypoxanthine, the latter two being used to generate oxyradicals. The base for comparing the effect of different levels of purpurogallin was the time taken to cause necrosis in 95% of 10^5 cells of the same generation in each culture dish. […]
The results are shown graphically in FIG. 2. […] The data are expressed as means±SD (standard deviation). […]

rat hepatocytes [2] = assay: survival of rat hepatocytes after exposure to oxyradical (Table I); type: cell-based; conditions: for Mean Survival Time of 10^5 Rat Hepatocytes After Exposure to Oxyradical: control about 6.5 minutes
Excerpt: In further studies, culturing the rat hepatocytes and testing for oxyradical damage using purpurogallin and Trolox additives according to the procedure of Wu et al. op. cit., and Clin. Chem. 36: 1172-1173 (abstract), 1990, the results given below in Table I were obtained.

[3] = system: Human ventricular myocytes; assay: survival of ventricular myocytes after exposure to oxyradical (Table II); type: cell-based; conditions: for Mean survival time of human ventricular myocytes after exposure to oxyradical: control 2 minutes, mean of 5-7 replicates
Excerpt: Human ventricular myocytes were isolated and tested with purpurogallin and Trolox for protection against oxyradical damage using the methods and procedures described by Wu et al., op cit.
Each result reported in Table II is the mean of 5-7 closely agreeing replicates.

[4] = system: Rat kidney mesangial cells; assay: survival of rat kidney mesangial cells exposed to XOD and hypoxanthine (Table III); type: cell-based; conditions: for Mean Time Survival of Cells Exposed to XOD and Hypoxanthine: XOD 66.7 IU/L, hypoxanthine 0.5 mM, control 5.7
Excerpt: Rat kidney mesangial cells were isolated and tested with purpurogallin versus Trolox over the same range of concentrations, for protection against oxyradical damage using methods and procedures described by Wu et al., op cit. […]

rat livers = assay: partial hepatic ischemia-reperfusion in vivo; parameters: species or system Sprague-Dawley rats; conditions: for Mean Necrosis (% by weight): infused via penile vein, 24 h reperfusion, saline control 30.3, n=6
Procedure: In vivo studies were conducted on rat livers, to determine the effectiveness of purpurogallin as a cytoprotectant in partial hepatic ischemia-reperfusion.
There was used the same model as described in Wu et al. Hepatology 13: 575-580, (1991). In essence, the model involves the occlusion of blood vessels supplying to the left lateral, median, and Spigelian lobes of the rate liver by clamping the left portal vein, left hepatic artery and left bile duct. The right portal vein, hepatic artery and bile duct were left intact as an interal shunt. The occlusion was done in Sprague-Dawley rats (0.3-0.4 kg) which had fasted overnight. Approximately […] before the end of ischemia, either 3 mL of saline (control) or saline containing purpurogallin or Trolox (at the levels specified below) was infused into the animals via the penile vein over a 3 minute period. This was followed by reperfusion for 24 hours. Then, the extent of necrosis (based on wet weight of the liver) was quantified by a well established histochemical method (Frederiks et al., Exptl. Mol. Path 41: 119-125, 1984).

heart = heart ischemia-reperfusion in vivo; parameters: species or system New Zealand white rabbits
Procedure: In this example, the cytoprotective effect of purpurogallin in vivo, in heart ischemia-reperfusion in rabbits was examined.
New Zealand white rabbits (3.0-3.5 kg by weight) were anaesthetized with intramuscular injection of Ketamine (35 mg/kg) and Atravet (0.4 mg/kg), and intravenous injection of atropine (0.1 mg/kg).
After shaving the frontal area of the animal, anaesthesia was maintained by performing tracheotomy and ventilating the animal with positive pressure respiration using a Harvard small animal respirator and a gas mixture of 2.5% ethrane (or enflurane) in oxygen. A midline sternotomy was done. The pericardium was opened and the heart was exposed. The main branch of the anterior ventricular coronary artery that supplies blood to a great part of the left ventricle and apex in rabbits (also referred to as the left circumflex coronary artery) was temporarily ligated with a 5-0 silk thread for 1 hour at the site between 1/2 to 2/3 from apex to the atrioventricular groove. Approximately 1 minute before releasing the occlusion, a 30-ml bolus of 1 mM test solution was injected through the right external jugular vein. In control animals, a 30-mL bolus of normal saline was given instead of the test solution. […] After this period, the heart was harvested, stained for enzyme activity with a tetrazolium dye and the areas of necrosis determined by planimetry. […]

water solubility = type: physicochemical; conditions: 4 mM prepared in PBS with brief sonication, pH adjusted to 7.40±0.05

Row | Compound | IC50 (human erythrocytes) | Mean Survival Time of 10^5 Rat Hepatocytes After Exposure to Oxyradical (rat hepatocytes [2]; 0.5 mM) | Mean Survival Time of 10^5 Rat Hepatocytes After Exposure to Oxyradical (rat hepatocytes [2]; 1.0 mM) | Mean Survival Time of 10^5 Rat Hepatocytes After Exposure to Oxyradical (rat hepatocytes [2]; 2.0 mM) | Mean survival time of human ventricular myocytes after exposure to oxyradical ([3]; 0.5 mM) | Mean survival time of human ventricular myocytes after exposure to oxyradical ([3]; 1.0 mM) | Mean survival time of human ventricular myocytes after exposure to oxyradical ([3]; 1.5 mM) | Mean survival time of human ventricular myocytes after exposure to oxyradical ([3]; 3.0 mM) | Mean Time Survival of Cells Exposed to XOD and Hypoxanthine ([4]; 0.13 mM) | Mean Time Survival of Cells Exposed to XOD and Hypoxanthine ([4]; 0.25 mM) | Mean Time Survival of Cells Exposed to XOD and Hypoxanthine ([4]; 0.50 mM) | Mean Time Survival of Cells Exposed to XOD and Hypoxanthine ([4]; 1.00 mM) | also measured
1 | O=c1c(O)cccc2cc(O)c(O)c(O)c12 [Purpurogallin, 2,3,4,6-tetrahydroxy-5H-benzocyclohepten5-one] | 120 µM | 18 min | 20 min | 31 min | 14 min | > 60 min | > 60 min | > 60 min | 11.5 min | 13.4 min | 16.0 min | 19.4 min | effectiveness versus Trolox in protecting cells from lysis (from IC50) (human erythrocytes; versus Trolox): six; time taken to necrose 100,000 hepatocytes (rat hepatocytes [1]): up to 30 min; protection of rat hepatocytes compared with Trolox (rat hepatocytes [2]; at equivalent concentrations): clearly more protective of rat hepatocytes than Trolox; protection of myocytes compared with Trolox ([3]; especially at levels greater than 0.5 mM): at least an order of magnitude more protective of myocytes than Trolox; protection of kidney cells compared with Trolox ([4]; over all the levels examined): protects the kidney cells substantially better than Trolox; Mean Necrosis (% by weight) (rat livers; 4.4 μmoles/kg body weight, SD 4.6): 17.7 % by weight; % Salvage of Liver (rat livers; 4.4 μmoles/kg body weight, p value vs control <0.05): 42%; Mean Necrosis (% by weight) (rat livers; 8.8 μmoles/kg body weight, SD 4.9): 7.3 % by weight; % Salvage of Liver (rat livers; 8.8 μmoles/kg body weight, p value vs control 0.005): 76%; Mean Necrosis (% by weight) (rat livers; 18 μmoles/kg body weight, SD 1.1): 4.4 % by weight; % Salvage of Liver (rat livers; 18 μmoles/kg body weight, p value vs control 0.001): 86%; Mean % (± SD) organ necrosis in area at risk (heart; 8.6-10 μmoles/kg body weight (30-ml bolus of 1 mM), right external jugular vein, 3-hour reperfusion, saline control 46.6 ± 10, p <0.001): 11.8 ± 6.2%; Mean & organ salvage (heart; 8.6-10 μmoles/kg body weight, p <0.001 vs control): 75%; water solubility (water solubility): partly water-soluble
2 | Cc1c(C)c2c(c(C)c1O)CCC(C)(C(=O)O)O2 (centres unmarked) [Trolox, 6-hydroxy-2,5,7,8-tetramethylchroman-2-carboxylic acid, reference compound] | ~740 µM | 12 min | 13 min | 16 min | 3.5 min | 4.5 min | 4.8 min | 5.3 min | 6.4 min | 6.6 min | 7.4 min | 7.8 min | –

— patent US5248668A, “Use of purpurogallin and glycosides thereof in treating ischemia in mammals” (Wintek Consulting Ltd., priority 1992, dated 1993)
